Source: patent US10023592B2, “Bromodomain inhibitors” (Celgene Quanticel Research, Inc., priority 2013, dated 2018)
Counter-ions that a name gives are not always drawn.

How the values were obtained:
BRD4(BD1) = BRD4(BD1) (Homo sapiens (Human), UniProt O60885); test: In vitro enzyme inhibition assay (BRD4 AlphaScreen); assay type: binding
Procedure, shortened: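 His-tagged BRD4 tested by AlphaScreen for binding of biotinylated H4K5/8/12/16-tetraacetyl peptide. After 20 min at room temperature, streptavidin donor and nickel chelate acceptor beads added (5 μg/mL final each). IC50 determined.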

[1] = tested on: Raji, human Burkitts lymphoma cells; test: Cell-MTS proliferation assay, Raji; assay type: cell-based; settings: Homo sapiens, Cell-MTS proliferation, 168 hr
Description: The Cell-MTS assay is a 7-day plate-based colorimetric assay which quantifies the amount of newly generated NADH in the presence or absence of test compound. The NADH level is used for the quantification of cancer cell proliferation.
Established cancer cell lines with a variety of driving mutations were obtained from American Type Culture Collection (ATCC) and routinely passaged according to ATCC protocols. For routine assay, these cells were seeded at densities which enabled ˜90% confluence after 7 days of culture. Raji, human Burkitts lymphoma cells, (cMYC) were seeded at 15,000 cells per 96-well. HL-60, human proleukemia cells, (NRAS, p16, p53, c-Myc amplified) were seeded at 5,000 cells per 96-well. NCI-H460, human non-small cell lung cancer cells, (KRAS, PIK3CA, STLK11, p16) were seeded at 3,000 cells per 96-well. 24 hr after plating, cells received an 11-point dilution of test compound with final concentration ranges from 100 μM to 2.0 nM. […] At the end of this incubation period, 80 μL of media is removed and 20 μL of CellTiter 96® AQueous Non-Radioactive Cell Proliferation Assay soln (Promega) was added. The cells were incubated until the OD490 was >0.6. IC50 values were calculated using the IDBS XLfit software package and include background subtracted OD490 values and normalization to DMSO controls. Cellular proliferation IC50 values were uploaded and archived using the Chem Biography Platform.

[2] = in vitro enzyme inhibition assay

SMILES	IC50 (BRD4(BD1); [2])	further results
CCS(=O)(=O)c1ccc(O[C@H]2CC[C@H](O)CC2)c(-c2cn(C)c(=O)c3cc(F)ccc23)c1 [Example 189, 4-[5-ethylsulfonyl-2-(trans-4-hydroxycyclohexyl)oxyphenyl]-7-fluoro-2-methylisoquinolin-1-one]	< 500 nM	IC50 ([1]; Raji): < 500 nM
Cn1cc(-c2nc(CS(C)(=O)=O)ncc2Oc2ccc(F)cc2F)c2ccccc2c1=O [Example 148, 4-[5-(2,4-difluorophenoxy)-2-(methylsulfonylmethyl)pyrimidin-4-yl]-2-methylisoquinolin-1-one]	< 500 nM	IC50 ([1]; Raji): > 5000 nM
CCS(=O)(=O)Nc1ncc(Oc2ccc(F)cc2F)c(-c2cc(C)c(=O)n(C(C)C)c2)n1 [Example 509, N-[5-(2,4-difluorophenoxy)-4-(5-methyl-6-oxo-1-propan-2-ylpyridin-3-yl)pyrimidin-2-yl]ethanesulfonamide]	< 500 nM	IC50 ([1]; Raji cells): < 500 nM
CCS(=O)(=O)c1ccc(OCC2CC2)c(-c2cc(OCC(F)(F)F)c(=O)n(C)c2)c1 [Example 288, 5-[2-(cyclopropylmethoxy)-5-ethylsulfonylphenyl]-1-methyl-3-(2,2,2-trifluoroethoxy)pyridin-2-one]	< 500 nM	IC50 ([1]; Raji): 500 to 5000 nM
CCS(=O)(=O)Nc1cc2c(c(-c3cc(C)c(=O)n(C)c3)c1)OC(C1CC1)C2 (centres unmarked) [Example 496, N-[2-cyclopropyl-7-(1,5-dimethyl-6-oxopyridin-3-yl)-2,3-dihydro-1-benzofuran-5-yl]ethanesulfonamide]	< 500 nM	IC50 ([1]; Raji cells): < 500 nM
CCCCc1cnc(NS(=O)(=O)CC)nc1-c1cc(C(C)C)c(=O)n(C)c1 [Example 512, N-[5-butyl-4-(1-methyl-6-oxo-5-propan-2-ylpyridin-3-yl)pyrimidin-2-yl] ethanesulfonamide]	< 500 nM	IC50 ([1]; Raji cells): < 500 nM
CCC1Cc2cc(S(C)(=O)=O)cc(-c3cn(C)c(=O)c4ccccc34)c2O1 (centres unmarked) [Example 494, 4-(2-ethyl-5-methylsulfonyl-2,3-dihydro-1-benzofuran-7-yl)-2-methylisoquinolin-1-one]	< 500 nM	IC50 ([1]; Raji cells): 500 to 5000 nM
[2H]C([2H])([2H])n1cc(-c2cc(S(=O)(=O)CC)ccc2OCC2CC2)c(C)cc1=O [Example 457, 5-[2-(cyclopropylmethoxy)-5-ethylsulfonylphenyl]-1-(^2H3)methyl-4-methylpyridin-2-one]	< 500 nM	IC50 ([1]; Raji cells): < 500 nM
Cc1cc(-c2cc(S(C)(=O)=O)ccc2OCCC(F)(F)F)cn(C)c1=O [Example 405, 1,3-dimethyl-5-[5-methylsulfonyl-2-(3,3,3-trifluoropropoxy)phenyl]pyridin-2-one]	< 500 nM	–
CCNc1cc(-c2ccc(OC)c(NS(C)(=O)=O)c2)cn(C)c1=O [Example 111, N-[5-[5-(ethylamino)-1-methyl-6-oxopyridin-3-yl]-2-methoxyphenyl]methanesulfonamide]	–	IC50 (BRD4(BD1); class symbols A/B/C): 500 to 5000 nM
Cc1cc(-c2cc(CS(C)(=O)=O)ccc2Oc2ccc(F)cc2F)cn(CCO)c1=O [Example 406, 5-[2-(2,4-difluorophenoxy)-5-(methylsulfonylmethyl)phenyl]-1-(2-hydroxyethyl)-3-methylpyridin-2-one]	< 500 nM	–
Cn1cc(-c2cc(S(C)(=O)=O)ccc2OCC2CCC2)ccc1=O [Example 460, 5-[2-(cyclobutylmethoxy)-5-methylsulfonylphenyl]-1-methylpyridin-2-one]	< 500 nM	–
CCS(=O)(=O)c1ccc(OCC2CC2)c(-c2cc(N3CCCC3)c(=O)n(C)c2)c1 [Example 282, 5-[2-(cyclopropylmethoxy)-5-ethylsulfonylphenyl]-1-methyl-3-pyrrolidin-1-ylpyridin-2-one]	500 to 5000 nM	–
Cn1cc(-c2cccc(S(C)(=O)=O)c2)cc(N)c1=O [Example 107, 3-amino-1-methyl-5-(3-methylsulfonylphenyl)pyridin-2-one]	–	IC50 (BRD4(BD1); class symbols A/B/C): > 5000 nM
COc1ccc(COc2cc(-c3cc(C)c(=O)n(C)c3)cc(S(C)(=O)=O)c2)cc1 [Example 323, 5-[3-[(4-methoxyphenyl)methoxy]-5-methylsulfonylphenyl]-1,3-dimethylpyridin-2-one]	< 500 nM	–
[2H]C([2H])([2H])n1cc(-c2cc(S(=O)(=O)CC)ccc2OCC)c(C)cc1=O [Example 456, 5-(2-ethoxy-5-ethylsulfonylphenyl)-1-(^2H3)methyl-4-methylpyridin-2-one]	< 500 nM	–
CCS(=O)(=O)Nc1ccc(Oc2ccc(F)cc2F)c(-c2cc(NC)c(=O)n(C)c2)c1 [Example 410, N-[4-(2,4-difluorophenoxy)-3-[1-methyl-5-(methylamino)-6-oxopyridin-3-yl]phenyl]ethanesulfonamide]	< 500 nM	–
COc1ccc(-c2cn(C)c(=O)c3cnccc23)cc1S(N)(=O)=O [Example 56, 2-methoxy-5-(2-methyl-1-oxo-2,7-naphthyridin-4-yl) benzenesulfonamide]	–	IC50 (BRD4(BD1); class symbols A/B/C): > 5000 nM

SMILES	IC50 (BRD4(BD1); [2])	further results
COCC1COc2c(cc(S(C)(=O)=O)cc2-c2cc(C)c(=O)n(C)c2)O1 (centres unmarked) [Example 502, 5-[2-(methoxymethyl)-7-methylsulfonyl-2,3-dihydro-1,4-benzodioxin-5-yl]-1,3-dimethylpyridin-2-one]	< 500 nM	–
CCCc1ccc(S(C)(=O)=O)cc1-c1cn(C)c(=O)c2ccccc12 [Example 314, 2-methyl-4-(5-methylsulfonyl-2-propylphenyl)isoquinolin-1-one]	< 500 nM	–
Cc1cc(=O)n(C)cc1-c1cccc(NS(C)(=O)=O)c1 [Example 95, N-[3-(1,4-dimethyl-6-oxopyridin-3-yl)phenyl]methanesulfonamide]	–	IC50 (BRD4(BD1); class symbols A/B/C): 500 to 5000 nM
CCS(=O)(=O)c1cccc(-c2cn(C)c(=O)c3cncn23)c1 [Example 133, 5-(3-ethylsulfonylphenyl)-7-methylimidazo[1,5-a]pyrazin-8-one]	–	IC50 (BRD4(BD1); class symbols A/B/C): > 5000 nM
CCS(=O)(=O)Nc1ccc(Oc2ccc(F)cc2F)c(-c2cn(C)c(=O)c3c2CCC3)c1 [Example 507, N-[4-(2,4-difluorophenoxy)-3-(2-methyl-1-oxo-6,7-dihydro-5H-cyclopenta[c]pyridin-4-yl)phenyl]ethanesulfonamide]	< 500 nM	–
Cn1cc(-c2cc(N)c(F)cc2F)c2ccccc2c1=O [Example 24, 4-(5-amino-2,4-difluorophenyl)-2-methylisoquinolin-1-one hydrochloride]	–	IC50 (BRD4(BD1); class symbols A/B/C): 500 to 5000 nM
CCS(=O)(=O)Nc1cccc(-c2cc(C)c(=O)n(C)n2)c1 [Example 480, N-[3-(1,5-dimethyl-6-oxopyridazin-3-yl)phenyl]ethanesulfonamide]	500 to 5000 nM	–
CCCCn1cc(-c2nc(NS(=O)(=O)CC)ncc2Oc2ccc(F)cc2F)cc(C)c1=O [Example 297, N-[4-(1-butyl-5-methyl-6-oxopyridin-3-yl)-5-(2,4-difluorophenoxy)pyrimidin-2-yl]ethanesulfonamide]	< 500 nM	–
CCCc1cnc(NS(=O)(=O)CC)nc1-c1cc(OC)c(=O)n(C)c1 [Example 361, N-[4-(5-methoxy-1-methyl-6-oxopyridin-3-yl)-5-propylpyrimidin-2-yl]ethanesulfonamide]	< 500 nM	–
COc1ccc(COc2cc(-c3cn(C)c(=O)c4ccccc34)cc(S(C)(=O)=O)c2)cc1 [Example 343, 4-[3-[(4-methoxyphenyl)methoxy]-5-methylsulfonylphenyl]-2-methylisoquinolin-1-one]	500 to 5000 nM	–
CCS(=O)(=O)c1ccc(NCC2CC2)c(-c2cc(NC)c(=O)n(C)c2)c1 [Example 408, 5-[2-(cyclopropylmethylamino)-5-ethylsulfonylphenyl]-1-methyl-3-(methylamino)pyridin-2-one]	< 500 nM	–
CCCc1cnc(NS(=O)(=O)CC)nc1-c1cc(Cl)c(=O)n(C)c1 [Example 359, N-[4-(5-chloro-1-methyl-6-oxopyridin-3-yl)-5-propylpyrimidin-2-yl]ethanesulfonamide]	< 500 nM	–
Cn1cc(-c2ccc(F)c(N)c2)c2ccccc2c1=O [Example 26, 4-(3-amino-4-fluorophenyl)-2-methylisoquinolin-1-one hydrochloride]	–	IC50 (BRD4(BD1); class symbols A/B/C): 500 to 5000 nM
Cn1cc(-c2cc(CS(C)(=O)=O)ccc2OCC(F)(F)F)cc(F)c1=O [Example 421, 3-fluoro-1-methyl-5-[5-(methylsulfonylmethyl)-2-(2,2,2-trifluoroethoxy)phenyl]pyridin-2-one]	< 500 nM	–
CCCCc1cnc(NS(=O)(=O)CC)nc1-c1cc(Cl)c(=O)n(C)c1 [Example 360, N-[5-butyl-4-(5-chloro-1-methyl-6-oxopyridin-3-yl)pyrimidin-2-yl]ethanesulfonamide]	< 500 nM	–
COc1ccccc1-c1cn(C)c(=O)c2ccccc12 [Example 4, 4-(2-methoxyphenyl)-2-methylisoquinolin-1-one]	–	IC50 (BRD4(BD1); class symbols A/B/C): > 5000 nM
Cn1cc(-c2cccc(S(C)(=O)=O)c2)nc(N)c1=O [Example 104, 3-amino-1-methyl-5-(3-methylsulfonylphenyl)pyrazin-2-one]	–	IC50 (BRD4(BD1); class symbols A/B/C): > 5000 nM
Cn1cc(-c2nc(N3CCCS3(=O)=O)ncc2OCC2CC2)c2ccccc2c1=O [Example 156, 4-[5-(cyclopropylmethoxy)-2-(1,1-dioxo-1,2-thiazolidin-2-yl)pyrimidin-4-yl]-2-methylisoquinolin-1-one]	< 500 nM	–
